Data from paper PMC8765251, “Orally administered intelligent self-ablating nanoparticles: a new approach to improve drug cellular uptake and intestinal absorption” (Drug Delivery, 2022).
Where two headings read alike, the source gives them in different places.

Experiment: Pharmacokinetic study
Format: in vivo
Settings: SD rats; for AUC: serum liraglutide by ELISA, n = 5/group, mean ± SD
Protocol: SD rats (GemPharmatech Co., Ltd.) weighing 200–220 g were fasted overnight and randomly divided into five groups(n = 5/group): […] The first four groups were administered orally. After a single administration, blood was collected and centrifuged, and serum was collected. An ELISA Kit for liraglutide was used to measure the blood concentration of liraglutide. The assay was performed according to the instructions of the ELISA Kit for liraglutide. The processed samples were tested using a microplate reader (CYT5MV microplate reader, BioTek USA Botten Instruments Co., Ltd.), and the drug concentration was calculated by plotting the curve.

## CCCCCCCCCCCCCCCC(=O)N[C@@H](CCC(=O)NCCCC[C@H](NC(=O)[C@H](C)NC(=O)[C@H](C)NC(=O)[C@H](CCC(N)=O)NC(=O)CNC(=O)[C@H](CCC(=O)O)NC(=O)[C@H](CC(C)C)NC(=O)[C@H](Cc1ccc(O)cc1)NC(=O)[C@H](CO)NC(=O)[C@H](CO)NC(=O)[C@@H](NC(=O)[C@H](CC(=O)O)NC(=O)[C@H](CO)NC(=O)[C@@H](NC(=O)[C@H](Cc1ccccc1)NC(=O)[C@@H](NC(=O)CNC(=O)[C@H](CCC(=O)O)NC(=O)[C@H](C)NC(=O)[C@@H](N)Cc1cnc[nH]1)[C@@H](C)O)[C@@H](C)O)C(C)C)C(=O)N[C@@H](CCC(=O)O)C(=O)N[C@@H](Cc1ccccc1)C(=O)N[C@H](C(=O)N[C@@H](C)C(=O)N[C@@H](Cc1c[nH]c2ccccc12)C(=O)N[C@@H](CC(C)C)C(=O)N[C@H](C(=O)N[C@@H](CCCNC(=N)N)C(=O)NCC(=O)N[C@@H](CCCNC(=N)N)C(=O)NCC(=O)O)C(C)C)[C@@H](C)CC)C(=O)O [liraglutide]
Oral (i.g.) versus subcutaneous liraglutide, dose-normalised AUC
  BR (relative bioavailability): 5.37%
Single oral administration
  AUC: 1.06118 ± 0.05655 ng·h/mL
Subcutaneous injection, the reference
  BR (relative bioavailability): 100%
Sprague-Dawley, rat, sc, single subcutaneous injection, read-out: AUC
  AUC: 1.98 ± 0.109 ng·h/mL
